Key:
[1] = tested on: S-HeLa stably expressing a YFP-Parkin fusion protein; assay: Mitophagy cellular assay; assay type: cell-based; details: YFP-Parkin HeLa cells, compound with 6 μM CCCP, Tomm20 negative cells (FIG. 4)
Procedure: The mitophagy cellular assay was performed as follows:
S-HeLa stably expressing a YFP-Parkin fusion protein were utilised in high content screening assays to assess Parkin-dependent endpoints. 4000 cells were seeded in each well of a 96 well plate (Perkin Elmer ViewPlate-96 F TC, cat. N. 6005182) and left to grow for 24 hours. Cells were then incubated with vehicle (DMSO) or increasing concentrations of compound (1, 2.5, 5, 10 μM) for 1 hour prior to adding 6 μM carbonyl cyanide m-chlorophenyl hydrazone (CCCP), each condition run in replicate of three. After 20 hours, the cells were processed for immunofluorescence.
Samples were fixed in 4% PFA for 25 minutes RT and permeabilized with PBS 0.1% Triton-X100 for 3 minutes on ice, blocked with PBS 3% BSA, 0.3% Triton-X100 for 2 hours RT, followed by overnight incubation with primary antibody at 4° C. […] 18 images were acquired for each well using the following combination of excitation/emission filters: Hoechst33342 was excited through a 350/50 nm band pass filter and fluorescence intensity was collected through a 460/30 band pass filter. YFP was excited through a 500/20 nm band pass filter and fluorescence intensity was collected through a 540/35 band pass filter. DyLight 649 was excited through a 640/30 nm band pass filter and fluorescence intensity was collected through 700/75 band pass filter. […]

CDK 4/6 or other kinases = assay: Kinase panel assay (whole panel); assay type: biochemical; details: 10 μM, in words
Excerpt: (§1) Compound 42 was also screened in a kinase panel assay.

ABL1 = ABL1 (Homo sapiens, UniProt P00519); assay: Kinase panel assay; assay type: biochemical
Excerpt: as §1

AURKA (Aurora A) = AURKA (Aurora A) (Homo sapiens, UniProt O14965); assay: Kinase panel assay; assay type: biochemical
Excerpt: as §1

CDK2/Cyclin A = CDK2/Cyclin A (Homo sapiens, UniProt P24941); assay: Kinase panel assay; assay type: biochemical
Excerpt: as §1

CDK4/CyclinD1 = CDK4/CyclinD1 (Homo sapiens, UniProt P11802); assay: Kinase panel assay; assay type: biochemical
Excerpt: as §1

CDK4/CyclinD3 = CDK4/CyclinD3 (Homo sapiens, UniProt P11802); assay: Kinase panel assay; assay type: biochemical
Excerpt: as §1

CDK6/CyclinD1 = CDK6/CyclinD1 (Homo sapiens, UniProt Q00534); assay: Kinase panel assay; assay type: biochemical
Excerpt: as §1

EGFR (ErbB1) = EGFR (ErbB1) (Homo sapiens, UniProt P00533); assay: Kinase panel assay; assay type: biochemical
Excerpt: as §1

GSK3B (GSK3 beta) = GSK3B (GSK3 beta) (Homo sapiens, UniProt P49841); assay: Kinase panel assay; assay type: biochemical
Excerpt: as §1

MAPK1 (ERK2) = MAPK1 (ERK2) (Homo sapiens, UniProt P28482); assay: Kinase panel assay; assay type: biochemical
Excerpt: as §1

MAPK14 (p38 alpha) = MAPK14 (p38 alpha) (Homo sapiens, UniProt Q16539); assay: Kinase panel assay; assay type: biochemical
Excerpt: as §1

MAPK3 (ERK1) = MAPK3 (ERK1) (Homo sapiens, UniProt P27361); assay: Kinase panel assay; assay type: biochemical
Excerpt: as §1

PAK4 = PAK4 (Homo sapiens, UniProt O96013); assay: Kinase panel assay; assay type: biochemical
Excerpt: as §1

PIM1 = PIM1 (Homo sapiens, UniProt P11309); assay: Kinase panel assay; assay type: biochemical
Excerpt: as §1

PLK1 = PLK1 (Homo sapiens, UniProt P53350); assay: Kinase panel assay; assay type: biochemical
Excerpt: as §1

5 major CYP enzymes = assay: CYP inhibition assay (all 5 enzymes); assay type: in vitro ADME; details: 30 μM, in words

PIM1, sequence (P11309 whole entry, species assumed): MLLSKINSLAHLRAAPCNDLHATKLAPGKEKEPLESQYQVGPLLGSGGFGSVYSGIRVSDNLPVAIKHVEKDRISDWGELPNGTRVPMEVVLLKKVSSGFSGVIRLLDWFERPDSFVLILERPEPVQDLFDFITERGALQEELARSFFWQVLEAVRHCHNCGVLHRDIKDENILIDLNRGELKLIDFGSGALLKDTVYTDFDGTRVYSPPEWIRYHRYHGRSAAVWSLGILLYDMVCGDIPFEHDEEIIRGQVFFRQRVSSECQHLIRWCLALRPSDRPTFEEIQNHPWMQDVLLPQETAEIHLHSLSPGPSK
AURKA (Aurora A), sequence (O14965 whole entry, species assumed): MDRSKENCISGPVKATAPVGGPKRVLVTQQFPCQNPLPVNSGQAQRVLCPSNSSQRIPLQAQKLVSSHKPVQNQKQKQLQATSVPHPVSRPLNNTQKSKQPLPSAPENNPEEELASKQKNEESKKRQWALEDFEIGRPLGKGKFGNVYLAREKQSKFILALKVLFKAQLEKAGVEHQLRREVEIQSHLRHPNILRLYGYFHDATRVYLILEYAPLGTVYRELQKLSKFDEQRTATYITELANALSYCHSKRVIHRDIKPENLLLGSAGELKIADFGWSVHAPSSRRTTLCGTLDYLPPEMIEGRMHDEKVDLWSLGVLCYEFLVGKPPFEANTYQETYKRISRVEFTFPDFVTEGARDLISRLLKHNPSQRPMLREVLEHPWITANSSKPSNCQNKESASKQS
MAPK3 (ERK1), sequence (P27361 whole entry, species assumed): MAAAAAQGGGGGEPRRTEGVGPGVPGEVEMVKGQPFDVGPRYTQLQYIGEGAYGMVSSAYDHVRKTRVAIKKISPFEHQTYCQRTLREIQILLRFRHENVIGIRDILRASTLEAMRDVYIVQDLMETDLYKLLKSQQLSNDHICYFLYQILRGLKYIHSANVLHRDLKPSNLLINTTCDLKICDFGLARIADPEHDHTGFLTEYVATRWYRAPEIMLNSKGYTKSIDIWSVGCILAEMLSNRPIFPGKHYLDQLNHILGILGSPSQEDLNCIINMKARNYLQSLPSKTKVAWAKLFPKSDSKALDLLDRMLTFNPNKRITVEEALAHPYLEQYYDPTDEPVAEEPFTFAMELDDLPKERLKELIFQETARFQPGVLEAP
CDK6/CyclinD1, sequence (Q00534 whole entry, species assumed): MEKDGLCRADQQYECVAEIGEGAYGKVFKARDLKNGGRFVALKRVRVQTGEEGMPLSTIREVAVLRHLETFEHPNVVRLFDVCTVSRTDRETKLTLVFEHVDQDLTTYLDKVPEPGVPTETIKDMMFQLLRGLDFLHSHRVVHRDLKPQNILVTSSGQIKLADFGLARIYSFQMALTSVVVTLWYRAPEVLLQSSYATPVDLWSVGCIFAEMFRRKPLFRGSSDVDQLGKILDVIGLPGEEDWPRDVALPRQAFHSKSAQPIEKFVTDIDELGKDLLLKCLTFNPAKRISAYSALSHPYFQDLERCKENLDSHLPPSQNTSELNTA
CDK6/CyclinD1, sequence (P24385 whole entry partner, species assumed): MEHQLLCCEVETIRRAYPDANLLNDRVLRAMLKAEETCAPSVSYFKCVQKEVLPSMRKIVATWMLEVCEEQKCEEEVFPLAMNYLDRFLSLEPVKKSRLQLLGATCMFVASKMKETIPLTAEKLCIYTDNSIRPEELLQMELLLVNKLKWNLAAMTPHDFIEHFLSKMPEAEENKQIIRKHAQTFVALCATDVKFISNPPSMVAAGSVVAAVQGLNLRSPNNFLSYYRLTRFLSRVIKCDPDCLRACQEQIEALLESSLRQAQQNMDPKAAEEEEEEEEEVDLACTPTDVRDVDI
CDK4/CyclinD1, sequence (P11802 whole entry, species assumed): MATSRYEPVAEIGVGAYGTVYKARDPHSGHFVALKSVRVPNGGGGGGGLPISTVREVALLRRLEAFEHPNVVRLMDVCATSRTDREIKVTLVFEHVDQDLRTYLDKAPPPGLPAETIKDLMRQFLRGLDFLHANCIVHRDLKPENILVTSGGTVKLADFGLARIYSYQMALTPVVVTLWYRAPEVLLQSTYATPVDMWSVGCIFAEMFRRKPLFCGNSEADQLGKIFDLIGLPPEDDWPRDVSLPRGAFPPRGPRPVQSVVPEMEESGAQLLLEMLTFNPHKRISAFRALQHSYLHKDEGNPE
CDK4/CyclinD1, sequence (P24385 whole entry partner, species assumed): as the sequence (P24385 whole entry partner, species assumed) above
CDK4/CyclinD3, sequence (P11802 whole entry, species assumed): as the sequence (P11802 whole entry, species assumed) above
CDK4/CyclinD3, sequence (P30281 whole entry partner, species assumed): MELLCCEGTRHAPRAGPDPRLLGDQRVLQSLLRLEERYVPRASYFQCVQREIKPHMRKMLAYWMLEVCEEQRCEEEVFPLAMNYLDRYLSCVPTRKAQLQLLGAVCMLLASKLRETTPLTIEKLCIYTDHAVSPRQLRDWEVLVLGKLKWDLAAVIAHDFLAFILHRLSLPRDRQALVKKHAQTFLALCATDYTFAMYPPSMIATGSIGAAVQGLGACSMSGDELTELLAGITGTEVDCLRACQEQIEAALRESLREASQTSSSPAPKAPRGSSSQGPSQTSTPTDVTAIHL
MAPK1 (ERK2), sequence (P28482 whole entry, species assumed): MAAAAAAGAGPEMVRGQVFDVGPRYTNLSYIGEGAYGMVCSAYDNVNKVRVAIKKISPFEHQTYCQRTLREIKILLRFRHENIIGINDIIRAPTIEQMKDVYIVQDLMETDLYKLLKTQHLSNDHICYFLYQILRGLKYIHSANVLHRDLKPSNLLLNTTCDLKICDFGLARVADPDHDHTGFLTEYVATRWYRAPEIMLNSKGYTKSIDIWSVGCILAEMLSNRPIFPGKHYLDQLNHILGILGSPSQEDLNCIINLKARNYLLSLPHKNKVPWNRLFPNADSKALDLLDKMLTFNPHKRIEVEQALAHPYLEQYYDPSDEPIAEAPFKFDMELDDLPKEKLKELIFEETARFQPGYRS
ABL1, sequence (P00519 whole entry, species assumed): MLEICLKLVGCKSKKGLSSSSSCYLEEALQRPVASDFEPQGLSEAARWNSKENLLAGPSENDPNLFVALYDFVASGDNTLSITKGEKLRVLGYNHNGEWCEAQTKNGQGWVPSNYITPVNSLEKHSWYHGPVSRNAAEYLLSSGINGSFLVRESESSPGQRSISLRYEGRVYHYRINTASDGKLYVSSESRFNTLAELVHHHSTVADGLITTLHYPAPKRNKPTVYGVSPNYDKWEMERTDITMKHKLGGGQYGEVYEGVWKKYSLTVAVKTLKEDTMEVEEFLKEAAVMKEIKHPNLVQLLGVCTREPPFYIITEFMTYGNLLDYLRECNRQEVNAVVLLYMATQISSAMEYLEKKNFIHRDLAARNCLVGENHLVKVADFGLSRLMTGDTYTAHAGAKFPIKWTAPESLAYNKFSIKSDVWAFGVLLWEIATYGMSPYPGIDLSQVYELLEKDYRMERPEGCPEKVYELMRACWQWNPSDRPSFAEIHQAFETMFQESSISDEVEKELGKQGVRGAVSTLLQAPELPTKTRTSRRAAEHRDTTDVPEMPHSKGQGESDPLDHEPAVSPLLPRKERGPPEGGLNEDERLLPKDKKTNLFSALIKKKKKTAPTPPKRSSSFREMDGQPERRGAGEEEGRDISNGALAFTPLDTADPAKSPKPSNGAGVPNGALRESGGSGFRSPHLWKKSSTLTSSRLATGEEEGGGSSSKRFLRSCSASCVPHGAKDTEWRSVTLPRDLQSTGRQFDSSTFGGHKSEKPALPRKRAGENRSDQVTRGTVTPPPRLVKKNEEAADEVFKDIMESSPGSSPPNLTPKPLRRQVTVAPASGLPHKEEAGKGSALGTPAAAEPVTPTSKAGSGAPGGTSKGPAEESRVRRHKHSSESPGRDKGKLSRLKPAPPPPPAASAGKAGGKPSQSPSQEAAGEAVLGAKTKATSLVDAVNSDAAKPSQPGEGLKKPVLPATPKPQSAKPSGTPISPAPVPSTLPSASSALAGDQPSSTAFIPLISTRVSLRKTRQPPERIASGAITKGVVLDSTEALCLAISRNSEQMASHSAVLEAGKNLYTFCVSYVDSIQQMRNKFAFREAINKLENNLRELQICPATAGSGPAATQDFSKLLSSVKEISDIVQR
PLK1, sequence (P53350 whole entry, species assumed): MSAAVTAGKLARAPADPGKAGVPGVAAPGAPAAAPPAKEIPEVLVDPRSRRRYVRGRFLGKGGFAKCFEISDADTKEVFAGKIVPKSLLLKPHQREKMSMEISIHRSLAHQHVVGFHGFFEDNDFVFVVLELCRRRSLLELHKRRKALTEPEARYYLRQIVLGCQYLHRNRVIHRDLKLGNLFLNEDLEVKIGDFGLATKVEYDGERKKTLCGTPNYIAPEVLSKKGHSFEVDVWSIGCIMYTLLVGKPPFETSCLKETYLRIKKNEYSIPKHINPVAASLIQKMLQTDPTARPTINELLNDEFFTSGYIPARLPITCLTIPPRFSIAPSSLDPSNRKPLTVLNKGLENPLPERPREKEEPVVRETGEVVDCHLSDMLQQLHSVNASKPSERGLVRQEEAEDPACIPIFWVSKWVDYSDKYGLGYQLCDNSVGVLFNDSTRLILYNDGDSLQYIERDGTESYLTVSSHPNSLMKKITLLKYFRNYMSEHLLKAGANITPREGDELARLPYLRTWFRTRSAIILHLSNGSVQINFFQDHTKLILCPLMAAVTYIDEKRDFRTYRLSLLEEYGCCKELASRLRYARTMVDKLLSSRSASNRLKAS
MAPK14 (p38 alpha), sequence (Q16539 whole entry, species assumed): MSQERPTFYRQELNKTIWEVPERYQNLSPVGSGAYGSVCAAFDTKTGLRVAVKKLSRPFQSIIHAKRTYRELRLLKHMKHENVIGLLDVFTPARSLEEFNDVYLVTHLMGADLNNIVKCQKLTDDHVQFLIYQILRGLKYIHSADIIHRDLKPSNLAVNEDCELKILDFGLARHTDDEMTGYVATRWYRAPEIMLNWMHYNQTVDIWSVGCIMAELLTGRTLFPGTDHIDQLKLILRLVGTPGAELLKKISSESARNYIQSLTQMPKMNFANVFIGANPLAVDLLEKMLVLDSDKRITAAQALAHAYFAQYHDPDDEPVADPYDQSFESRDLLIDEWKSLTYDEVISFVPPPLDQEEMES

## Cc1ccccc1C(=O)Nc1nc(NC(=O)c2ccccc2C)n(-c2ccc(OC(F)(F)F)cc2)n1 [Compound 42, N,N′-(1-(4-(trifluoromethoxy)phenyl)-1H-1,2,4-triazole-3,5-diyl)bis(2-methylbenzamide)]
[1]
  mitophagy / removal of damaged mitochondria: increases removal of damaged mictochondria
CDK 4/6 or other kinases
  inhibition of CDK 4/6 or other kinases: does not inhibit
ABL1
  inhibition at 10 µM: 8%
AURKA (Aurora A)
  inhibition at 10 µM: 4%
CDK2/Cyclin A
  inhibition at 10 µM: 4%
CDK4/CyclinD1
  inhibition at 10 µM: 12%
CDK4/CyclinD3
  inhibition at 10 µM: 3%
CDK6/CyclinD1
  inhibition at 10 µM: 0%
EGFR (ErbB1)
  inhibition at 10 µM: 8%
GSK3B (GSK3 beta)
  inhibition at 10 µM: 12%
MAPK1 (ERK2)
  inhibition at 10 µM: 4%
MAPK14 (p38 alpha)
  inhibition at 10 µM: 19%
MAPK3 (ERK1)
  inhibition at 10 µM: 1%
PAK4
  inhibition at 10 µM: 5%
PIM1
  inhibition at 10 µM: 5%
PLK1
  inhibition at 10 µM: 4%
5 major CYP enzymes
  CYP inhibition activity for the 5 major CYP enzymes: no significant CYP inhibition activity

From patent US10889553B2, “Asymmetric triazole benzamide derivatives and the compositions and methods of treatment regarding the same” (NysnoBio Ireland DAC, priority 2017, dated 2021)
